Test results published in patent publication US5486526A, “Histamine H3 -receptor antagonists and therapeutic uses thereof” (The University of Toledo, priority 1993, dated 1996).
Like-named read-outs stand apart in the source and are kept apart here.

How the values were obtained:
histamine H3 receptor = target: T1, histamine H3 receptor (Rattus norvegicus, UniProt Q9QYN8); assay: Inhibition of [^3 H]-N-alpha-methylhistamine binding to rat brain membranes
T1 construct: from tissue
Method: A series of compounds were prepared and tested for their histamine H3 receptor antagonist activity. The antagonist activity of the compounds was detected by observing inhibition of (^3 H)-N-(alpha)methylhistamine activity on rat brain membranes.
The various compounds were tested for the ability to bind to the histamine H3 receptor. A binding assay in a rat brain membrane preparation, based on inhibition of binding of [^3 H]-N-alpha-methylhistamine using excess unlabeled alpha-methylhistamine to account for nonspecific binding, was developed.

[1] = test system: H3 receptors in the cortex; assay: Blood-brain barrier penetration by ex vivo binding of [^3 H]-N^α -methylhistamine in rat cortex
Method: Blood-brain barrier penetration in rats was assessed by an ex vivo binding procedure. Young adult male Long-Evans rats were injected i.p. with saline or H3 antagonists in saline. At various times after injection animals were sacrificed, the cortex was removed, homogenized in 50 mM Na/K-phosphate buffer, pH 7.4, and the binding of 1 nM [^3 H]-N^α -methylhistamine was measured using 400 μg protein of the homogenate. Nonspecific binding was accounted for by the inclusion of excess thioperamide in some samples. Under these conditions, the binding was approximately 90% specific.

histamine H3 receptors = details: in vitro; cited from earlier work
Male albino CF-1 mice = assay: Behavioral effects in mice: sleep induced by (R)α-methylhistamine; format: in vivo, mouse
Method: (§1) The overall strategy to show central nervous system antagonist activity was to challenge effects of the agonist (R)α-methylhistamine. Therefore, the first objective was to establish a dose response curve for behavioral effects of (R)α-methylhistamine. Male albino CF-1 mice weighing 20-30 g were used. Saline or (R)α-methylhistamine in saline was injected i.p. in a volume ≤0.4 ml. […] Animals were scored for the presence (1) or absence (0) of the behavior and the results were reported as the accumulated score for a 30 minute period (maximum score=9).
(§2) To assess the effects of antagonists, they were administered with the (R)α-methylhistamine in saline.

brain in rats = details: cited from earlier work
Substance K = assay: NOVASCREEN receptor selectivity assay: Substance K; format: binding; details: 10^-5 M
[2] = Toxicity observed in testing to date; format: in vivo; details: all testing to date, even at high doses
Kainate = assay: NOVASCREEN receptor selectivity assay: Kainate; format: binding; details: 10^-5 M
Benzodiazephine = assay: NOVASCREEN receptor selectivity assay: Benzodiazephine; format: binding; details: 10^-5 M
Glycine [3] = assay: NOVASCREEN receptor selectivity assay: Glycine (excitatory); format: binding; details: 10^-5 M
Serotonin 1 = assay: NOVASCREEN receptor selectivity assay: Serotonin 1; format: binding; details: 10^-5 M
GABAA = assay: NOVASCREEN receptor selectivity assay: GABAA; format: binding; details: 10^-5 M
Bombesin = assay: NOVASCREEN receptor selectivity assay: Bombesin; format: binding; details: 10^-5 M
[4] = test system: adenosine, excitory or inhibitory amino acid, dopamine, serotonin, or a broad range of petidergic receptors, or to ion channel proteins, peptide factor or …; assay: NOVASCREEN receptor selectivity study (whole panel); format: binding; details: 10^-5 M
Dopamine 2 = assay: NOVASCREEN receptor selectivity assay: Dopamine 2; format: binding; details: 10^-5 M
EGF = assay: NOVASCREEN receptor selectivity assay: EGF; format: binding; details: 10^-5 M
Potassium = assay: NOVASCREEN receptor selectivity assay: Potassium; format: binding; details: 10^-5 M
PCP = assay: NOVASCREEN receptor selectivity assay: PCP; format: binding; details: 10^-5 M
CCK Peripheral = assay: NOVASCREEN receptor selectivity assay: CCK Peripheral; format: binding; details: 10^-5 M
Quisqualate = assay: NOVASCREEN receptor selectivity assay: Quisqualate; format: binding; details: 10^-5 M
Arg-Vasopressin V1 = assay: NOVASCREEN receptor selectivity assay: Arg-Vasopressin V1; format: binding; details: 10^-5 M
NPY = assay: NOVASCREEN receptor selectivity assay: NPY; format: binding; details: 10^-5 M
Adenosine = assay: NOVASCREEN receptor selectivity assay: Adenosine; format: binding; details: 10^-5 M
CCK Central = assay: NOVASCREEN receptor selectivity assay: CCK Central; format: binding; details: 10^-5 M
H3 -receptor = assay: In vivo assays of H3-receptor antagonist effect (overall)
Method: as §1, §2

Somatostatin = assay: NOVASCREEN receptor selectivity assay: Somatostatin; format: binding; details: 10^-5 M
Neurotensin = assay: NOVASCREEN receptor selectivity assay: Neurotensin; format: binding; details: 10^-5 M
Angiotensin = assay: NOVASCREEN receptor selectivity assay: Angiotensin; format: binding; details: 10^-5 M
Inositol Triphosphate = assay: NOVASCREEN receptor selectivity assay: Inositol Triphosphate; format: binding; details: 10^-5 M
Chloride = assay: NOVASCREEN receptor selectivity assay: Chloride; format: binding; details: 10^-5 M
MK-801 = assay: NOVASCREEN receptor selectivity assay: MK-801; format: binding; details: 10^-5 M
NMDA = assay: NOVASCREEN receptor selectivity assay: NMDA; format: binding; details: 10^-5 M
GABAB = assay: NOVASCREEN receptor selectivity assay: GABAB; format: binding; details: 10^-5 M
VIP = assay: NOVASCREEN receptor selectivity assay: VIP; format: binding; details: 10^-5 M
Glycine [5] = assay: NOVASCREEN receptor selectivity assay: Glycine (inhibitory); format: binding; details: 10^-5 M
[6] = test system: Protein Kinase C Phorbol Ester; assay: NOVASCREEN receptor selectivity assay: Protein Kinase C, Phorbol Ester; format: binding; details: 10^-5 M
[7] = test system: Adenylate Cyclase Forskolin; assay: NOVASCREEN receptor selectivity assay: Adenylate Cyclase, Forskolin; format: binding; details: 10^-5 M
Male Sprague-Dawley rats = assay: Food intake in 24-hour-fasted rats; format: in vivo, rat
Method: Male Sprague-Dawley rats (200-300 grams) were used in all experiments. Rats were fasted for 24 hours prior to all experiments. Water was provided ad lib. Rats were singly placed in a ventilated plastic circular rat metabolism chamber with a stainless steel wire mess grid flood equipped with food and H2 O attachments. A measured quantity of food (50 grams) and water (100 mls) was supplied through attachments to the metabolism chambers. Food and water intake was measured at the 2, 4 and 6 hour time periods.
Final volumes were 1.0 ml/kg. Subsequently, they were left undisturbed for the experimental period except when the food and H2 O attachments were briefly removed for measurement of food and water intake. At the completion of the experiment, animals were returned to their home cages. The results are found in Table III and FIGS. 7 and 8.

Dopamine 1 = assay: NOVASCREEN receptor selectivity assay: Dopamine 1; format: binding; details: 10^-5 M
Substance P = assay: NOVASCREEN receptor selectivity assay: Substance P; format: binding; details: 10^-5 M
Serotonin 2 = assay: NOVASCREEN receptor selectivity assay: Serotonin 2; format: binding; details: 10^-5 M
ANF (rat) = assay: NOVASCREEN receptor selectivity assay: ANF (rat); format: binding; details: 10^-5 M
Calcium [8] = assay: NOVASCREEN receptor selectivity assay: Calcium (Nifedipine); format: binding; details: 10^-5 M
Calcium [9] = format: binding; details: 10^-5 M
NGF = assay: NOVASCREEN receptor selectivity assay: NGF; format: binding; details: 10^-5 M

T1 sequence (Q9QYN8 whole entry): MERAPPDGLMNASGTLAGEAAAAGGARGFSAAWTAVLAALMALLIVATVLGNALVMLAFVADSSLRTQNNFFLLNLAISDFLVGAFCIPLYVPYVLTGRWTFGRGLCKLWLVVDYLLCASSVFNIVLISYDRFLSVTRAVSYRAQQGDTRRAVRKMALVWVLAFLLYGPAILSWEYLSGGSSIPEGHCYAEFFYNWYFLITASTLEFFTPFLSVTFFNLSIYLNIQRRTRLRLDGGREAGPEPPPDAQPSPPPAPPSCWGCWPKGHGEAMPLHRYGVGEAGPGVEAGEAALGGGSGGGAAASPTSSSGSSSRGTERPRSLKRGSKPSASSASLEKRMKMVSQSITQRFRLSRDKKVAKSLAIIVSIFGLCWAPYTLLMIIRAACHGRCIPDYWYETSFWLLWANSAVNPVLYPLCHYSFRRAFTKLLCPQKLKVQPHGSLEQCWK

S=C(NC1CCCCC1)N1CCC(c2cnc[nH]2)CC1 [Thioperamide, reference compound]
IC50 (histamine H3 receptor): 4 ± 0.6 nM | IC50 (histamine H3 receptor; read-out: affinity, repeated in text): 4 nM | binding of [^3 H]-N^α -methylhistamine to cortex (in words) ([1]; 2, 5, and 10 mg/kg i.p., 15 min after injection): decreased the binding of [^3 H]-N^α -methylhistamine | penetration of the blood-brain barrier (in words) ([1]; thioperamide 2, 5, 10 mg/kg i.p., 15 min): able to penetrate the blood-brain barrier | Ki (histamine H3 receptors): 4.3 nM | soporific effect of (R)α-methylhistamine (in words) (Male albino CF-1 mice; 30 mg/kg of (R)α-methylhistamine): able to inhibit the soporific effect | behavior with antagonist alone (in words) (Male albino CF-1 mice; in the absence of the α-methylhistamine H3 receptor agonist): animals were very active, exhibiting normal behaviors | dose required in vivo to inhibit histamine release from the brain (in words) (brain in rats): relatively high doses are required in vivo

O=C(CCCCC1CCCCC1)N1CCC(c2c[nH]cn2)CC1 [Compound 1, 4-(1-cyclohexylvaleroyl-4-piperidyl)-1H-imidazole]
Initial Percent Inhibition (Average; N = 2) (Substance K): 29.2% | toxicity (in words) [2]: no toxicity | Initial Percent Inhibition (Average; N = 2) (Kainate): 42.1% | Initial Percent Inhibition (Average; N = 2) (Benzodiazephine): 2.7% | Initial Percent Inhibition (Average; N = 2) (Glycine [3]): 1.8% | Initial Percent Inhibition (Average; N = 2) (Serotonin 1): -3.6% | Initial Percent Inhibition (Average; N = 2) (GABAA): 0.6% | Initial Percent Inhibition (Average; N = 2) (Bombesin): -5.5% | binding to panel receptors (in words) [4]: no significant binding | Initial Percent Inhibition (Average; N = 2) (Dopamine 2): 3.5% | Initial Percent Inhibition (Average; N = 2) (EGF): 18.1% | Initial Percent Inhibition (Average; N = 2) (Potassium): 7.7% | Initial Percent Inhibition (Average; N = 2) (PCP): 9.7% | penetration of the blood-brain barrier (in words) ([1]; 50 and 70 mg/kg, one hour after injection): penetrates the blood-brain barrier one hour after injections | penetration of the blood-brain barrier compared with thioperamide (in words) ([1]; taking into account the difference in affinity): penetrates the blood-brain barrier at least as well as thioperamide | Initial Percent Inhibition (Average; N = 2) (CCK Peripheral): 6.9% | Initial Percent Inhibition (Average; N = 2) (Quisqualate): -1.8% | Initial Percent Inhibition (Average; N = 2) (Arg-Vasopressin V1): 10.1% | Initial Percent Inhibition (Average; N = 2) (NPY): -8.7% | Initial Percent Inhibition (Average; N = 2) (Adenosine): -3.0% | Initial Percent Inhibition (Average; N = 2) (CCK Central): 18.6% | H3 -receptor antagonist effect (in words) (H3 -receptor): effective as an H3 -receptor antagonist | Initial Percent Inhibition (Average; N = 2) (Somatostatin): 4.1% | Initial Percent Inhibition (Average; N = 2) (Neurotensin): -10.5% | Initial Percent Inhibition (Average; N = 2) (Angiotensin): 6.5% | soporific effect of (R)α-methylhistamine (in words) (Male albino CF-1 mice; 25 mg/kg (R)α-methylhistamine): inhibited the soporific effect | Initial Percent Inhibition (Average; N = 2) (Inositol Triphosphate): 9.2% | Initial Percent Inhibition (Average; N = 2) (Chloride): -3.4% | Initial Percent Inhibition (Average; N = 2) (MK-801): -8.6% | Initial Percent Inhibition (Average; N = 2) (NMDA): -4.5% | Initial Percent Inhibition (Average; N = 2) (GABAB): 0.0% | Initial Percent Inhibition (Average; N = 2) (VIP): 17.1% | Initial Percent Inhibition (Average; N = 2) (Glycine [5]): 17.4% | Initial Percent Inhibition (Average; N = 2) [6]: 0.9% | Initial Percent Inhibition (Average; N = 2) [7]: 2.1% | food intake 2 HR (Male Sprague-Dawley rats; 3 mg/kg i.p.): 5.687 | food intake 4 HR (Male Sprague-Dawley rats; 3 mg/kg i.p.): 7.333 | food intake 2 HR (Male Sprague-Dawley rats; 10 mg/kg i.p.): 2.000 | food intake 4 HR (Male Sprague-Dawley rats; 10 mg/kg i.p.): 5.167 | food intake 2 HR (Male Sprague-Dawley rats; 30 mg/kg i.p.): 1.167 | food intake 4 HR (Male Sprague-Dawley rats; 30 mg/kg i.p.): 2.333 | food intake 6 HR (Male Sprague-Dawley rats; 30 mg/kg i.p.): 5.000 | Initial Percent Inhibition (Average; N = 2) (Dopamine 1): 6.4% | Initial Percent Inhibition (Average; N = 2) (Substance P): 20.0% | Initial Percent Inhibition (Average; N = 2) (Serotonin 2): 10.5% | Initial Percent Inhibition (Average; N = 2) (ANF (rat)): 0.1% | Initial Percent Inhibition (Average; N = 2) (Calcium [8]): 8.1% | Initial Percent Inhibition (Average; N = 2) (Calcium [9]): 1.9% | Initial Percent Inhibition (Average; N = 2) (NGF): 17.1%
